Source: PMC9170845, “Development of a multi faceted platform containing a tetrazine, fluorophore and chelator: synthesis, characterization, radiolabeling, and immuno-SPECT imaging” (EJNMMI Radiopharmacy and Chemistry, 2022)

Key:
[1] = Fluorescence characterization (excitation/emission spectra, absolute quantum yield); format: physicochemical; settings: in DMSO (stated for 13); for fluorescence quantum yield (Φfl): absolute PLQY, integrating sphere
Protocol: Following the synthesis of the final scaffold, the excitation and emission spectrum, and quantum yield were measured for the uncomplexed scaffold DO3A-BODIPY-Tz (13) in DMSO (Fig. 1), where an excitation λmax = 524 nm, emission λmax = 537 nm and a fluorescence quantum yield (Φfl) of 0.38 was observed. There are reports of tetrazine residues deactivating the fluorescence properties of fluorophores when they belong to the same molecular entity. However, once the tetrazine is conjugated, these properties are reinstated (Oliveira et al. [2017]; Wu and Devaraj [2018]). To ensure this, 13 was conjugated to TCO-NHS 16 in DMSO (Scheme 2). A distinct colour change from red to orange was observed which clearly indicated tetrazine consumption. The fluorescence properties of 17 (see Additional file1: Fig. S36) were then measured and compared to 13 and 4,4′-dicyano-BODIPY (7) (see Additional file1: Fig. S35; λmax excitation = 527 nm, λmax emission = 541 nm, Φfl = 0.87).
Luminescence experiments were conducted on an Edinburgh Instruments FS5 spectrometer using the SC-05 cassette. All spectra were corrected for instrument response. Excitation and emission monochromator bandwidths for 7 and 17 were set to 1 nm, and 1.5 nm for 13. The emission spectrum for 13 was collected with the aid of a Knight Optical 395 nm long-pass filter to reduce the effects of scattering. Solution-based absolute photoluminescent quantum yields (PLQY) were obtained for 7, 13, and 17 via the SC-30 Integrating Sphere cassette with excitation wavelengths of 380, 490, and 378 nm respectively.

[2] = Stability of cyano BODIPY core in acidic conditions (TFA in CDCl3, 1H NMR); format: physicochemical; settings: treated with TFA in CDCl3, monitored via 1H NMR, 11 days
From the text: Initially our scaffold design comprised of the conventional 4,4′-difluoro-BODIPY fluorophore (Additional file1: Scheme S1). Despite numerous attempts and alternative strategies for completing the synthesis of the platform using the F-BODIPY fluorophore, the route was unsuccessful resulting in either BF2 core removal or complete decomposition (see Additional File), despite there being reports in the literature of similar transformations being successful in the presence of F-BODIPY dyes (Alnajjar et al. [2018]; Tsuji et al. [2018]; Sui et al. [2016]; Compton et al. [2019]; Ieda et al. [2014]). […] The increased stability is believed to be a result of enhanced aromaticity, decreased charge density on the boron, and the formation of a stable 4,4′-dicyano-BODIPY-TFA complex. To the best of our knowledge there has only been one example of an investigation incorporating 4,4′-dicyano-BODIPYs into a chemical synthesis with protecting groups (Uriel et al. [2020]). To reassure the stability of the cyano BODIPY core in acidic conditions, 7 was treated with TFA in CDCl3 and monitored via ^1H NMR (see Additional file1: Fig. S11) (Wang et al. [2018]). […] An alternative route was initially investigated, where the Cbz on 9 underwent hydrogenolysis followed by insertion of the chelator, deprotection, then insertion of the tetrazine. […]

SMILES	emission λmax [1]	excitation λmax [1]	fluorescence quantum yield (Φfl) [1]	Stability in acidic conditions [2]
CCC1=C(C)C2=C(c3ccc(C(=O)NC(CCCCNC(=O)Cc4ccc(-c5nncnn5)cc4)C(=O)NC(CCCCNC(=O)CN4CCN(CC(=O)O)CCN(CC(=O)O)CCN(CC(=O)O)CC4)C(=O)O)cc3)c3c(C)c(CC)c(C)n3[B-](C#N)(C#N)[N+]2=C1C [compound 13, 2,2′,2″-(10-(2-(((S)-5-((S)-6-(2-(4-(1,2,4,5-tetrazin-3-yl)phenyl)acetamido)-2-(4-(4,4-dicyano-2,6-diethyl-1,3,5,7-tetramethyl-4-bora-3a,4a-diaza-s-indacen-8-yl)benzamido)hexanamido)-5-carboxypentyl)amino)-2-oxoethyl)-1,4,7,10-tetraazacyclododecane-1,4,7-triyl)triacetic acid]	537 nm	524 nm	0.38	
CCC1=C(C)C2=C(c3ccc(C(=O)ON4C(=O)CCC4=O)cc3)c3c(C)c(CC)c(C)n3[B-](C#N)(C#N)[N+]2=C1C [compound 7, 4,4-dicyano-8-(4-(succinimidocarboxy)phenyl)-2,6-diethyl-1,3,5,7-tetramethyl-4-bora-3a,4a-diaza-s-indacene]	541 nm	527 nm	0.87	no indication of instability even after 11 days
CCC1=C(C)C2=C(c3ccc(C(=O)NC(CCCCNC(=O)Cc4ccc(C5=NNC=C6CCC(OC(=O)ON7C(=O)CCC7=O)CCCC65)cc4)C(=O)NC(CCCCNC(=O)CN4CCN(CC(=O)O)CCN(CC(=O)O)CCN(CC(=O)O)CC4)C(=O)O)cc3)c3c(C)c(CC)c(C)n3[B-](C#N)(C#N)[N+]2=C1C (stereo not shown) [compound 17]	537 nm	525 nm	0.79	
